Measurements as given in article PMC5218480 (PLoS ONE, 2017).

Test system: MV-4-11 cells
Assay: Gene expression microarray analysis (Affymetrix PrimeView) and GSEA
Type: cell-based, human
Settings: MV-4-11, 48 hours, 1 μM each

Nc1ccc(-c2cccs2)cc1NC(=O)c1ccc2c(c1)cc(C1CC1)n2CCN1CCOCC1 [ACY-1035]
genes down-regulated greater than 2-fold relative to vehicle control: 72 genes
